Data on two compounds can be found in ChEMBL document CHEMBL1201862, “PubChem BioAssay data set” (2004).

The source made the active and inactive calls.

One assay relates to HeLa. Put plainly: HeLa cell cytotoxicity, dose response, cytotoxicity control, 24 h, cherry-picked samples (AID 504726).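 Note: potency for cytotoxicity as loss of luminescence signal.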 Particulars: Homo sapiens. Type of assay: functional, cell-based.
In assay [1] the target is T1, Small ubiquitin-related modifier 1 (Homo sapiens, UniProt P63165). Put plainly: inhibitors of SUMO1 partner interactions, dose response, biochemical, FRET (AID 624383). Particulars: read-out: IC50_Mean. The class given is functional.
Assay [2] deals with T2, RNA-binding protein pos-1 (Caenorhabditis elegans, UniProt G5EF15).
T2 sequence (G5EF15 whole entry): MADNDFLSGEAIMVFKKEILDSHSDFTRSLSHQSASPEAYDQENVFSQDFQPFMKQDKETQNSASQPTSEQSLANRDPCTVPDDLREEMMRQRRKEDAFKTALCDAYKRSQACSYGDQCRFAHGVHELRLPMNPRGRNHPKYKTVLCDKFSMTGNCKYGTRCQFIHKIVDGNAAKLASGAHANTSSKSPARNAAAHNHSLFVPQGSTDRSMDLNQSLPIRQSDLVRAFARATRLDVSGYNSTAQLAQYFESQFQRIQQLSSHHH
Put plainly: inhibitors of POS-1/mex-3 RNA binding, dose response, biochemical, fluorescence polarization (AID 1964). (In general: Polarisation of emitted light reports the rotation of a fluorescent probe.)

The target of the next assay is Bcl-2-like protein 1 (Homo sapiens, UniProt Q07817). The assay can be described thus: BCL-XL inhibitors, dose response, selectivity assay for MCL1 inhibitor project, biochemical, fluorescence polarization, 1536-well (AID 2218).
Another assay has as its target ORF 73 (Human herpesvirus 8, UniProt O40947). The assay can be described thus: inhibitors of C-LANA binding to LBS DNA, dose response, biochemical, fluorescence polarization, cherry-picked samples (AID 504725).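 Note: fluorescence polarization of a labeled DNA duplex reporting LANA DNA binding; potency is for inhibitors that block LANA binding to the DNA.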 The arrangement: species or system Human gammaherpesvirus 8.
The target of assay [3] is T3, Zinc finger protein mex-5 (Caenorhabditis elegans, UniProt Q9XUB2).
T3 sequence (Q9XUB2 whole entry): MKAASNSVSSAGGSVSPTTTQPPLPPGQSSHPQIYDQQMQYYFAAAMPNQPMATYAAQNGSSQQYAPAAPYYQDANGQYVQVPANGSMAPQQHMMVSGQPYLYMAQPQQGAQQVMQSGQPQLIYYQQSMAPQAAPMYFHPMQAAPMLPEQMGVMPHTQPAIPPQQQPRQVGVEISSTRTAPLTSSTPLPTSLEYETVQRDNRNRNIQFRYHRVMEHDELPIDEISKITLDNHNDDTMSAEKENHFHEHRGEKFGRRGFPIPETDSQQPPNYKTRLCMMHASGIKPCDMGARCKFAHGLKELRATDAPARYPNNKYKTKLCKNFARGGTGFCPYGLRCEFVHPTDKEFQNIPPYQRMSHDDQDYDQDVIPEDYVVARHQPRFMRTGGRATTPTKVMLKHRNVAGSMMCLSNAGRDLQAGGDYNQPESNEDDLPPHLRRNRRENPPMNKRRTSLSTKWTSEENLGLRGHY
Put plainly: MEX-5/TCR-2 RNA interaction inhibitors, dose response, biochemical, C. elegans, fluorescence polarization (AID 1960).

Assay [4] concerns the target Induced myeloid leukemia cell differentiation protein Mcl-1 (Homo sapiens, UniProt Q07820). The assay can be described thus: MCL1-BIM BH3 interaction inhibitors, dose response, biochemical, fluorescence polarization, BIM-BH3 peptide, 1536-well (AID 2217).
Assay [5] concerns the target Beta-adrenergic receptor kinase 1 (Homo sapiens, UniProt P25098). The assay can be described thus: aptamer displacement from bead-bound GRK2 – biochemical, cherry pick 1, bead flow cytometry, dose response (AID 504500). (Flow cytometry measures light scatter and fluorescence of single cells or particles in a stream.)
Assay [6] addresses DNA (cytosine-5)-methyltransferase 1 (Homo sapiens, UniProt P26358). The assay can be described thus: DNMT1 methyltransferase inhibitors, confirmation, biochemical, fluorescent molecular beacon (AID 602386). Type of assay: functional.
Assay [7] concerns the target T1, Small ubiquitin-related modifier 1. Put plainly: inhibitors of SUMO1 peptide binding, dose response, biochemical, fluorescence polarization, uHTS hits (AID 624382). Type of assay: functional. Particulars: read-out: IC50_Mean.
The next assay concerns Jurkat. Put plainly: SAR Analysis of small molecule inhibitors of T-cell specific antigen receptor-induced NF-kB activation in a Jurkat cell line using a luminescence assay - Set 2. [Related pubchem assays (depositor defined):AID435003, AID435012, AID465]. Conditions: Homo sapiens. Type of assay: functional, cell-based.
The nature of assay [8]: Shn3 3'UTR reporter inhibitors, dose response, cell-based, Clone20 osteoblasts, firefly luciferase, cherry-picked (AID 624132).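 Note: firefly luciferase luminescence from reporter carrying the Shn3 3'UTR in osteoblasts.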 The class given is functional.
Assay [9] has as its system HEK293. Put plainly: SAR Analysis of small molecule inhibitors of T-cell specific antigen receptor-induced NF-kB activation in a HEK-293T cell line using a luminescence assay - Set 2. [Related pubchem assays (depositor defined):AID435003, AID435012, AID489026]. Type of assay: functional, cell-based. Conditions: Homo sapiens.
The target of assay [10] is T4, Beta-2 adrenergic receptor (Homo sapiens, UniProt P07550). The assay can be described thus: beta2AR agonists driving receptor internalization, dose response, cell-based, FAP fluorogen, flow cytometry, cherry pick 1 (AID 588763). Type of assay: functional.
Assay [11] can be described thus: inhibitors of firefly luciferase expression or activity, dose response, H4 neuroglioma cells, luminescence (AID 1990). The class given is functional, cell-based.
The nature of assay [12]: Luminescence Cell-Based Dose Response HTS to Identify Inhibitors of 5'UTR Stem-Loop Driven Prion Protein mRNA Translation in H4 Neuroglioblastoma Cells. [Related pubchem assays: 1827 (Project Summary), 1813 (Primary HTS)]. The class given is functional.
In assay [13] the target is T5, Microphthalmia-associated transcription factor (Homo sapiens, UniProt O75030).
T5 sequence (O75030 whole entry): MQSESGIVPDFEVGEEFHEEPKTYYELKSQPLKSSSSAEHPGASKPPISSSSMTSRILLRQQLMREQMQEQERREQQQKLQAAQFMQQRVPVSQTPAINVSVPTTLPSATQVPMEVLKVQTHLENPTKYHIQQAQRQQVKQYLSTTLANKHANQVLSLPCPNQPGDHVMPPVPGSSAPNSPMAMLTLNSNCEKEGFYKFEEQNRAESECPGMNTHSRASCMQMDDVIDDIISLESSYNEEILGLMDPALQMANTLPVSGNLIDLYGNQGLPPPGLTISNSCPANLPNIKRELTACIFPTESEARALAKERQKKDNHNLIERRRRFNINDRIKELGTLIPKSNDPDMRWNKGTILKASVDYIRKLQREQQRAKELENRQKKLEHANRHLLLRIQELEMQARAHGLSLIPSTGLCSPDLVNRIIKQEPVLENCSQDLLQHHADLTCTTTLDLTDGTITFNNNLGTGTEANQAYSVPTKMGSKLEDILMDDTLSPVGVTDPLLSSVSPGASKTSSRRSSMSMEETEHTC
Put plainly: TRPM1 promoter luciferase signal decrease, dose response, MITF inhibitor project, cell-based, SK-MEL-5, cherry-picked, set 3 (AID 493073).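 Note: SK-MEL-5 melanoma cells with luciferase driven by the MITF target TRPM1 promoter.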 The class given is functional.

The nature of assay [14]: control 3'UTR Renilla luciferase suppression, dose response, counter-screen for Shn3 inhibitor project, cell-based, Clone20-Shn3RL, cherry-picked (AID 624133). The class given is functional. On the technique in general: The purpose of a counterscreen is to sort out artefacts and off-target activity.
The nature of assay [15]: inhibitors of SNCA 5'UTR-driven reporter translation, confirmation, H4 neuroglioma cells, luminescence (AID 1988). The class given is functional, cell-based.
Assay [16] addresses T6, Heat shock factor protein 1 (Mus musculus, UniProt P38532).
T6 sequence (P38532 whole entry): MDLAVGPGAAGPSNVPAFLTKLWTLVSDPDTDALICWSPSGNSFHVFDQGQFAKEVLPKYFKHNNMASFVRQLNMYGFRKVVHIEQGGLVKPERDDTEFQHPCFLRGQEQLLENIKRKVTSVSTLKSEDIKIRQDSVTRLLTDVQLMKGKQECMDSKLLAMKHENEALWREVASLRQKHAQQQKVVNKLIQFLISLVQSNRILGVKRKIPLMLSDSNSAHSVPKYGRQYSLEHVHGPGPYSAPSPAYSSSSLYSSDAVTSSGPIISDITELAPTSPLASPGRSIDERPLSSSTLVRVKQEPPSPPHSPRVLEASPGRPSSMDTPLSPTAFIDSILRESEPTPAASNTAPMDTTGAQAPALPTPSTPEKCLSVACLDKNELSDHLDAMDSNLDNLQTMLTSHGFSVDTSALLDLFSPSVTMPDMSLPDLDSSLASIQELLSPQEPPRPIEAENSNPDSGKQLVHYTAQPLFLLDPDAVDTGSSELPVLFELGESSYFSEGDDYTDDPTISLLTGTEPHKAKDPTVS
Put plainly: HSF1 potentiators in luciferase reporter cells, confirmation, cell-based, NIH3T3, luminescence, dose retest (AID 435004).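 Note: stress induced by proteasome inhibitor MG132 added 30 min after compound; luciferase reporter driven by HSF1 response element in NIH3T3 cells; actives raise luminescence as potentiators of the MG132 stress response.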 Type of assay: functional.

Assay [17] addresses T4, Beta-2 adrenergic receptor. The assay can be described thus: Dose response for HTS for Beta-2AR agonists via FAP method from Powderset1. The class given is functional.
The nature of assay [18]: HepG2 cell cytotoxicity, dose response, cytotoxicity control for Shn3 inhibitor project, CellTiter-Glo, cherry-picked (AID 624134). Type of assay: functional, cell-based.
For assay [19], the system named is HEK293. Put plainly: cytotoxicity in HEK293T NF-kB-Luc cells, SAR follow-up, cytotoxicity control for NF-kB activator project, cell-based, resazurin fluorescence (AID 493251). Particulars: Homo sapiens. The class given is functional.

T4 sequence (P07550 whole entry): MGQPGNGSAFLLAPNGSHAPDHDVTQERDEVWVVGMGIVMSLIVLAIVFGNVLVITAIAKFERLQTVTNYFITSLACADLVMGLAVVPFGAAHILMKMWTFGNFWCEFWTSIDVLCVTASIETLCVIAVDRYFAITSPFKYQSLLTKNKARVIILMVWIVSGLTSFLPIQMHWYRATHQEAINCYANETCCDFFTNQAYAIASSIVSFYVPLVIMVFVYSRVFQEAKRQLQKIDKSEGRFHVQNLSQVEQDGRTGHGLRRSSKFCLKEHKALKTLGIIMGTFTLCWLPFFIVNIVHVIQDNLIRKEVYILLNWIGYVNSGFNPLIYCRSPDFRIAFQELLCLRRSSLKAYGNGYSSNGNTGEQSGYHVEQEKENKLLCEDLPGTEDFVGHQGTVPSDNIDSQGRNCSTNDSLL
T1 sequence (P63165 whole entry): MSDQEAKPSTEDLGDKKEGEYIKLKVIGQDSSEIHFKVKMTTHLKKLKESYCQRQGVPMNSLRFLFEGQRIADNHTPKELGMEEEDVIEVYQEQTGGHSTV
Chain of Beta-adrenergic receptor kinase 1 (P25098 whole entry): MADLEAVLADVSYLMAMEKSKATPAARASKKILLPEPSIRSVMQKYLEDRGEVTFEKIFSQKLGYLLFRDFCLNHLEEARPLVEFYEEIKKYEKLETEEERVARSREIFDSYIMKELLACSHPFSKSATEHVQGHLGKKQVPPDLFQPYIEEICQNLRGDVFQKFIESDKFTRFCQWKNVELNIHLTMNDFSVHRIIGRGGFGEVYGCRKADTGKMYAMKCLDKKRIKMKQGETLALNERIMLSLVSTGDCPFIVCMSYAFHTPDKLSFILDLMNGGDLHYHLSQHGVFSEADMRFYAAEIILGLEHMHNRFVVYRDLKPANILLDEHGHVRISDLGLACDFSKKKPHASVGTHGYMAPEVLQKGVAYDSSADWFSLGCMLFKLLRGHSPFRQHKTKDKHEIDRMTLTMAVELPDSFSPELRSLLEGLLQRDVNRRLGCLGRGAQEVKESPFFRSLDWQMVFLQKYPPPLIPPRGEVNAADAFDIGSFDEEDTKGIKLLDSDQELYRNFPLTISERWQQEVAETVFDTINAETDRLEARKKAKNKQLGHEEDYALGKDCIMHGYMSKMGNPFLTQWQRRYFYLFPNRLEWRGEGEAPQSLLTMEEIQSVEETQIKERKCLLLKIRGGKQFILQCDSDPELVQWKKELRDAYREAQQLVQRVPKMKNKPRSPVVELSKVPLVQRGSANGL
Chain of ORF 73 (O40947 whole entry): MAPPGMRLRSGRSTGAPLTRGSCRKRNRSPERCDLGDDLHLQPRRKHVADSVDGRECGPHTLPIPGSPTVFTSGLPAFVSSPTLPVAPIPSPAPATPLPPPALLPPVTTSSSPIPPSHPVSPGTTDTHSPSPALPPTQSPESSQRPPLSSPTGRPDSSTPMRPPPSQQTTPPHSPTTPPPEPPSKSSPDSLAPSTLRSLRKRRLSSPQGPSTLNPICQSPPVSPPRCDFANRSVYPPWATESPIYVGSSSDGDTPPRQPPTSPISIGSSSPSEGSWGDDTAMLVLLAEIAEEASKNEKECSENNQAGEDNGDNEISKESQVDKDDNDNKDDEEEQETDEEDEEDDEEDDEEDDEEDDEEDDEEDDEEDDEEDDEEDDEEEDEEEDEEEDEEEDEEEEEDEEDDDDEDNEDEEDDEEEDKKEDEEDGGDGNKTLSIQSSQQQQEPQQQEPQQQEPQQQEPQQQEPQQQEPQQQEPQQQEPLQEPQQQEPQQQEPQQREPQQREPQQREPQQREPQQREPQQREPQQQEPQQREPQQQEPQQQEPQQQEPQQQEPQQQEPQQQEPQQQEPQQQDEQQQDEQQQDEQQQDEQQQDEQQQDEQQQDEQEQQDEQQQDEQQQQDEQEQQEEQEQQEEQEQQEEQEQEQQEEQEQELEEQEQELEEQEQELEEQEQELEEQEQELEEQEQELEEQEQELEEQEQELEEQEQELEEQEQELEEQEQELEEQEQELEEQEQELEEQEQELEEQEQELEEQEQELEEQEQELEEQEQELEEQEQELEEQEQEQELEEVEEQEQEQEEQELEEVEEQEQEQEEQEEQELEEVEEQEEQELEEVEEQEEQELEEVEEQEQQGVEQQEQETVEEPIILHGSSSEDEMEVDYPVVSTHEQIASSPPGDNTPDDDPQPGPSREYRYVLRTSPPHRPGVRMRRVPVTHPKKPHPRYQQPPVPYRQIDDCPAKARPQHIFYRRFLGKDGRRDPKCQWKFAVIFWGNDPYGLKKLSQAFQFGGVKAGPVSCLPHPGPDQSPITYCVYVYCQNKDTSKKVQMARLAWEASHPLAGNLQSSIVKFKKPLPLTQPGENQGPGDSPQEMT
Chain of DNA (cytosine-5)-methyltransferase 1 (P26358 whole entry): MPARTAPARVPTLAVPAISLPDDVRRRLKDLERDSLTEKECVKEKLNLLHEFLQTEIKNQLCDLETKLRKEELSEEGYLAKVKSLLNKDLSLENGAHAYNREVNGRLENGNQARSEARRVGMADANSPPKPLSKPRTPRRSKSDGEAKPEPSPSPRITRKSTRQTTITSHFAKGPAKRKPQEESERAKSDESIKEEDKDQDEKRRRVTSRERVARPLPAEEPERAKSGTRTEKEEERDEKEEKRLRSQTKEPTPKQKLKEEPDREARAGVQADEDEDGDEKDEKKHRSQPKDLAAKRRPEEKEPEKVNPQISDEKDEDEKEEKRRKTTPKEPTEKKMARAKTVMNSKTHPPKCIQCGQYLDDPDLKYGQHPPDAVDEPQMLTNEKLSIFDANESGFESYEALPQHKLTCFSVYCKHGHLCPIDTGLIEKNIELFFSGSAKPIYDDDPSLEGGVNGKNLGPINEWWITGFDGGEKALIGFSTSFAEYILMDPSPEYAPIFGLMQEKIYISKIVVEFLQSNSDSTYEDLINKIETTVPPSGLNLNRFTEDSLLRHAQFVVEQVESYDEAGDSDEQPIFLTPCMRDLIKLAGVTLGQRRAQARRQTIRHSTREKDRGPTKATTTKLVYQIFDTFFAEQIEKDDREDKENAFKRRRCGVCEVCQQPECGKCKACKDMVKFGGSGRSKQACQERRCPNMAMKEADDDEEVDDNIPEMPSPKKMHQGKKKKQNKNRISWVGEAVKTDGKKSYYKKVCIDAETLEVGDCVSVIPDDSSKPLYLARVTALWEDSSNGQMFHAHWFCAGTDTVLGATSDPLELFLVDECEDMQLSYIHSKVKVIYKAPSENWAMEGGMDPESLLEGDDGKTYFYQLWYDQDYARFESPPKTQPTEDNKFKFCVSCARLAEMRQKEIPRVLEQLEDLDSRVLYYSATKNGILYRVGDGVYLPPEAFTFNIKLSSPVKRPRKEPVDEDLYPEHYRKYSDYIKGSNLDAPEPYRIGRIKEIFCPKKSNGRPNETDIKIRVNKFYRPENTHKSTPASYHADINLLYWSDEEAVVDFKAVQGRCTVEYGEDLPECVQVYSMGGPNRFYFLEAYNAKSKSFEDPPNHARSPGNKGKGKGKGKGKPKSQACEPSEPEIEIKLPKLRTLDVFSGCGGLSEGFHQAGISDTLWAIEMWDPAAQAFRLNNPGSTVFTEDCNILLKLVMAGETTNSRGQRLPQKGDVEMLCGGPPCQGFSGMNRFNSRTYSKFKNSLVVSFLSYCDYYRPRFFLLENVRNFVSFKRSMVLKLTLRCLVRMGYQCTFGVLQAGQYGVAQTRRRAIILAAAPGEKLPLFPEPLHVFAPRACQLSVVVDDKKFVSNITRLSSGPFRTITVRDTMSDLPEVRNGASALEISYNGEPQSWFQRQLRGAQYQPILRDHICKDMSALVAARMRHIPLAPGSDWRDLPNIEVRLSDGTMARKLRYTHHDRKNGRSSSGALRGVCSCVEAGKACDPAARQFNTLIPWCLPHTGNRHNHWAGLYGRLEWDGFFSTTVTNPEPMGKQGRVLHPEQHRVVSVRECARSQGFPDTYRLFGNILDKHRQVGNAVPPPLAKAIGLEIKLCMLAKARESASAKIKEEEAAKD
Chain of Bcl-2-like protein 1 (Q07817 whole entry): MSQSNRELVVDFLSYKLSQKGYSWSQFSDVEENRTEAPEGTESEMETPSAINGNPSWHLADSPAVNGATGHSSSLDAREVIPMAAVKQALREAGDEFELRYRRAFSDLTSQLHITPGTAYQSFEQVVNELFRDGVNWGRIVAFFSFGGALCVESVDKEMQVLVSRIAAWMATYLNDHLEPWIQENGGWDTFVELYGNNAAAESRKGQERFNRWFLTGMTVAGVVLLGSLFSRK
Chain of Induced myeloid leukemia cell differentiation protein Mcl-1 (Q07820 whole entry): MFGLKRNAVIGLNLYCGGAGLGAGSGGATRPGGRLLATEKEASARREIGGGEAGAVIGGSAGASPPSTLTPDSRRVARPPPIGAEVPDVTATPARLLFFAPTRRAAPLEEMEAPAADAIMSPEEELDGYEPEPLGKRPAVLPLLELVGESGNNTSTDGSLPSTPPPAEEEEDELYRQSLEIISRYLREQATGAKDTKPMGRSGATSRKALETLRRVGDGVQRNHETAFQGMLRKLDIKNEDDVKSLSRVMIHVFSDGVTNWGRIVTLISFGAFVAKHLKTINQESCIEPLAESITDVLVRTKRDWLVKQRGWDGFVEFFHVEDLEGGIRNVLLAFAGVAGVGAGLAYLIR

The AC50 is the concentration giving half of the maximal activity seen. What is called EC50 is the concentration that produces a half-maximal response. As to `O=C(O)c1ccc(-n2cccc2/C=C2/SC(=O)N(CC(=O)N3CCCC3)C2=O)cc1`, the AC50 is 44.7 µM (active) with HeLa and 30.3 µM (active) at ORF 73. For the same compound, the IC50 in [1] was 6.13 µM (active); against Bcl-2-like protein 1 it was 104 µM (not active); in assay [4], 15.9 µM (not active); in assay [6], 3.5 µM (active); in assay [7], > 66.6 µM (inactive). Moreover, the figures for the EC50 in assay [2], in [3] and in assay [5] were 89 µM (active), 78.2 µM (active) and 33 µM (inactive), respectively.

As for `O=C(Nc1ccc(-c2nc3ncccc3o2)cc1)c1ccc([N+](=O)[O-])o1`, the IC50 was > 79 µM (inactive) in the assay on Jurkat, > 80 µM (inactive) with HEK293 [9] and > 80 µM (inactive) with HEK293 [19]. For the same compound, the half-maximal activity concentration (AC50) in [8] is 1.34 µM (active); in [13] it was 3.63 µM (active); in assay [14], 11 µM (active); in [18], 22.6 µM (active). Further, the EC50 in [10] is 0.636 µM (active); in assay [11] it was > 120 µM (not active); in assay [12] it was > 120 µM (not active); in assay [15], > 60 µM (not active); in assay [16] it was 7.12 µM (active); in [17], 0.152 µM (active).
